The text below walks through data of patent publication US20050020611A1, “Compounds” (priority 2003, published 2005).

The test system of assay [1] is TNFα release from human peripheral blood mononuclear cells. In words: Inhibition of LPS-stimulated TNFα release from human peripheral blood mononuclear cells (TNFα screen, ELISA). Type of assay: cell-based. Conditions: human PBMC, 18 hours incubation, TNFα in supernatant by ELISA. How it is done: Venous blood is collected from healthy volunteers and the mononuclear cells purified by centrifugation through Histopaque (Ficoll) cushions. TNFα production from these cells is stimulated by addition of lipopolysaccharide. After 18 hours incubation in the presence of LPS, the cell supernatant is removed and the concentration of TNFα in the supernatant determined by ELISA.
Background: In an ELISA, binding on a coated surface is turned into a signal by an enzyme label.

Assay [2] relates to PDE4. In words: PDE4 inhibition: hydrolysis of tritium labelled cAMP to AMP, SPA bead scintillation counting. Conditions: 50% reduction in counts compared to PDE4 only control wells. Type of assay: biochemical. How it is done:
The PDE4 inhibitory activity of the nicotinamide derivatives of the formula (I) is determined by the ability of compounds to inhibit the hydrolysis of cAMP to AMP by PDE4 (Thompson J W, Teraski W L, Epstein P M, Strada S J., “Assay of nucleotidephosphodiesterase and resolution of multiple molecular forms of the isoenzyme”, Advances in cyclic nucleotides research, edited by Brooker G, Greengard P, Robinson G A. Raven Press, New York 1979, 10, p. 69-92). Tritium labelled cAMP is incubated with PDE4. Following incubation, the radiolabelled AMP produced is able to bind yttrium silicate SPA beads. These SPA beads subsequently produce light that can be quantified by scintillation counting. The addition of a PDE4 inhibitor prevents the formation of AMP from cAMP and counts are diminished. The IC50 of a PDE4 inhibitor can be defined as the concentration of a compound that leads to a 50% reduction in counts compared to the PDE4 only (no inhibitor) control wells.

Structures are written as SMILES.

The IC50 is the concentration at which inhibition is half-maximal. Higher therefore signals lower potency. In turn, `COc1cc(O)ccc1C(=O)N[C@H]1CC[C@@H](NC(=O)c2cc(F)cnc2OC2CCSCC2)CC1` [Example 1] returned an IC50 in assay [1] of 0.7 nM.
Regarding `COc1ccccc1-c1cc(C(=O)N[C@H]2CC[C@@H](NC(=O)c3cc(F)cnc3OC3CCSCC3)CC2)n[nH]1` [Example 2, Syn-5-Fluoro-N-(4-{[5-(2-methoxy-phenyl)-1H-pyrazole-3-carbonyl]-amino}-cyclohexyl)-2-(tetrahydro-thiopyran-4-yloxy)-nicotinamide], in assay [1], it took 1.5 nM to reach half-maximal inhibition (IC50).
In assay [1], `COc1ccn2ccnc2c1C(=O)N[C@H]1CC[C@@H](NC(=O)c2cc(F)cnc2OC2CCSCC2)CC1` [Example 3, Syn-7-Methoxy-imidazo[1,2-a]pyridine-8-carboxylic acid(4-{[5-fluoro-2-(tetrahydro-thiopyran-4-yloxy)-pyridine-3-carbonyl]-amino}-cyclohexyl)amide] displayed an IC50 of 0.02 nM.
For `O=C(N[C@H]1CC[C@@H](NC(=O)c2cc(F)cnc2OC2CCSCC2)CC1)c1ccccc1OCCO` [Example 4, Syn-5-Fluoro-N-{4-[2-(2-hydroxy-ethoxy)-benzoylamino]-cyclohexyl}-2-(tetrahydro-thiopyran-4-yloxy)-nicotinamide], the IC50 came out at 0.04 nM in assay [1] and 1.5 nM in assay [2].
`Cc1ccc(OCCO)c(C(=O)N[C@H]2CC[C@@H](NC(=O)c3cc(F)cnc3OC3CCSCC3)CC2)c1` [Example 5]: the IC50 in assay [1] is 0.02 nM; in assay [2], 1 nM.
Taken in the same sequence, the figures for `Cc1cccc(C(=O)N[C@H]2CC[C@@H](NC(=O)c3cc(F)cnc3OC3CCSCC3)CC2)c1OCCO` [Example 9] were 0.1 nM and 2.8 nM.
`Cc1ccc(C(=O)N[C@H]2CC[C@@H](NC(=O)c3cc(F)cnc3OC3CCSCC3)CC2)c(OCCO)c1` [Example 10]: the IC50 in assay [1] was 0.04 nM; in assay [2] it was 5 nM.
Regarding `Cc1cnc(OC2CCSCC2)c(C(=O)N[C@H]2CC[C@@H](NC(=O)c3ccccc3OCCO)CC2)c1` [Example 13, Syn-N-{4-[2-(2-Hydroxy-ethoxy)-benzoylamino]-cyclohexyl}-5-methyl-2-(tetrahydro-thiopyran-4-yloxy)-nicotinamide], the IC50 in assay [1] worked out at 4 nM.
Turning to `O=C(N[C@H]1CC[C@@H](NC(=O)c2cc(F)cnc2OC2CCSCC2)CC1)c1ccccc1OCCCO` [Example 14, Syn-5-Fluoro-N-{4-[2-(3-hydroxy-propoxy)-benzoylamino]-cyclohexyl}-2-(tetrahydro-thiopyran-4-yloxy)-nicotinamide], the IC50 in assay [1] worked out at 0.1 nM.
The compound `CCOc1cc(O)ccc1C(=O)N[C@H]1CC[C@@H](NC(=O)c2cc(F)cnc2OC2CCSCC2)CC1` [Example 22, Syn-N-[4-(2-Ethoxy-4-hydroxy-benzoylamino)-cyclohexyl]-5-fluoro-2-(tetrahydro-thiopyran-4-yloxy)-nicotinamide] came in with an IC50 in assay [1] of 0.2 nM.
The same measure, in the same setting: the value for `O=C(N[C@H]1CC[C@@H](NC(=O)c2cc(F)cnc2OC2CCSCC2)CC1)c1ccc(O)cc1OCC1CC1` [Example 23] was 0.2 nM.
As for `O=C(N[C@H]1CC[C@@H](NC(=O)c2cc(F)cnc2OC2CCSCC2)CC1)c1ccc(O)cc1OC1CCCC1` [Example 24, Syn-N-[4-(2-Cyclopentoxy-4-hydroxy-benzoylamino)-cyclohexyl]-5-fluoro-2-(tetrahydro-thiopyran-4-yloxy)-nicotinamide], the IC50 in assay [1] was determined as 0.1 nM.
`COc1ccc(C)cc1S(=O)(=O)N[C@H]1CC[C@@H](NC(=O)c2cccnc2OC2CCSCC2)CC1` [Example 27, Syn-N-[4-(2-methoxy-5-methyl-benzenesulfonylamino)-cyclohexyl]-2-(tetrahydro-thiopyran-4-yloxy)-nicotinamide] yielded an IC50 in assay [1] of 5 nM.
On the same count and under the same terms, the value for `COc1ccc2cccnc2c1S(=O)(=O)N[C@H]1CC[C@@H](NC(=O)c2cc(F)cnc2OC2CCSCC2)CC1` [Example 28, Syn-5-Fluoro-N-[4-(7-methoxy-quinoline-8-sulfonylamino)-cyclohexyl]-2-(tetrahydro-thiopyran-4-yloxy)-nicotinamide] was 0.2 nM; that for `COc1ccc2cccnc2c1S(=O)(=O)N[C@H]1CC[C@@H](NC(=O)c2cccnc2OC2CCSCC2)CC1` [Example 29, Syn-N-[4-(7-methoxy-quinoline-8-sulfonylamino)-cyclohexyl]-2-(tetrahydro-thiopyran-4-yloxy)-nicotinamide] was 0.4 nM.
